Molecules are shown by their SMILES. Where a name gives a salt, the structure may show the parent alone. Where only a bound is given, the exact number is not on record here.

The test system of one test is LPS induced IL-6 secretion from whole blood. Description: Measurement of LPS Induced IL-6 Secretion from Whole Blood. The format is cell-based. The settings on record: LPS 200 ng/ml, 24 hours, read-out: pIC50 (IL-6 levels) (converted). The method, then: Measurement of LPS Induced IL-6 Secretion from Whole Blood
Activation of monocytic cells by agonists of toll-like receptors such as bacterial lipopolysaccharide (LPS) results in production of key inflammatory mediators including IL-6. Such pathways are widely considered to be central to the pathophysiology of a range of auto-immune and inflammatory disorders.
Compounds to be tested are diluted to give a range of appropriate concentrations of which 1 ul of the diluted stocks is added to a 96 well plate. Following addition of whole blood (130 ul) the plates are incubated at 37 degrees (5% CO2) for 30 min before the addition of 10 ul of 2.8 ug/ml LPS, diluted in complete RPMI 1640 (final concentration=200 ng/ml), to give a total volume of 140 ul per well. After further incubation for 24 hours at 37 degrees, 140 ul of PBS are added to each well. The plates are sealed, shaken for 10 minutes and then centrifuged (2500 rpm×10 min). 100 ul of the supernatant are removed and IL-6 levels assayed by immunoassay (typically by MesoScale Discovery technology) either immediately or following storage at −20 degrees. Concentration response curves for each compound was generated from the data and an IC50 value was calculated.
As for `CNCCn1cc(-c2ccc3c(c2)[C@H](Nc2cccc(C)n2)C[C@H](C)N3C(C)=O)cn1` [Example 147, (2S,4R)-1-Acetyl-2-methyl-6-{1-[2-(methylamino)ethyl]-1H-pyrazol-4-yl}-N-(6-methyl-2-pyridinyl)-1,2,3,4-tetrahydro-4-quinolinamine hydrochloride], the IC50 was no more than 10 µM.

For `CNCCn1cc(-c2ccc3c(c2)[C@H](Nc2ccc(C)cn2)C[C@H](C)N3C(C)=O)cn1` [Example 155, (2S,4R)-1-Acetyl-2-methyl-6-{1-[2-(methylamino)ethyl]-1H-pyrazol-4-yl}-N-(5-methyl-2-pyridinyl)-1,2,3,4-tetrahydro-4-quinolinamine hydrochloride], the IC50 was no more than 10 µM.

For `CNCCn1cc(-c2ccc3c(c2)[C@H](Nc2ncccn2)C[C@H](C)N3C(C)=O)cn1` [Example 153, (2S,4R)-1-Acetyl-2-methyl-6-{1-[2-(methylamino)ethyl]-1H-pyrazol-4-yl}-N-2-pyrimidinyl-1,2,3,4-tetrahydro-4-quinolinamine hydrochloride], the IC50 is no more than 10 µM.

On to `CC(=O)N1c2ccc(-n3cnc(C)c3)cc2[C@H](Nc2ccc(C)cn2)C[C@@H]1C` [Example 190], for which the IC50 is greater than 10 µM.

With `CC(=O)N1c2ccc(-n3cnc(C)c3)cc2[C@@H](Nc2ccc(C#N)cn2)C[C@H]1C` (racemic) [Example 159, 6-{[(cis)-1-acetyl-2-methyl-6-(4-methyl-1H-imidazol-1-yl)-1,2,3,4-tetrahydro-4-quinolinyl]amino}-3-pyridinecarbonitrile], the IC50 is no more than 10 µM.

`CNCCn1cc(-c2ccc3c(c2)[C@H](Nc2ncccc2F)C[C@H](C)N3C(C)=O)cn1` [Example 150, (2S,4R)-1-Acetyl-N-(3-fluoro-2-pyridinyl)-2-methyl-6-{1-[2-(methylamino)ethyl]-1H-pyrazol-4-yl}-1,2,3,4-tetrahydro-4-quinolinamine hydrochloride]: the IC50 was no more than 10 µM.

For the compound `CNCCn1cc(-c2ccc3c(c2)[C@H](Nc2cnccn2)C[C@H](C)N3C(C)=O)cn1` [Example 152, (2S,4R)-1-Acetyl-2-methyl-6-{1-[2-(methylamino)ethyl]-1H-pyrazol-4-yl}-N-2-pyrazinyl-1,2,3,4-tetrahydro-4-quinolinamine hydrochloride], the IC50 is no more than 10 µM.

`CNCCn1cc(-c2ccc3c(c2)[C@H](Nc2ccc(F)cn2)C[C@H](C)N3C(C)=O)cn1` [Example 154, (2S,4R)-1-Acetyl-N-(5-fluoro-2-pyridinyl)-2-methyl-6-{1-[2-(methylamino)ethyl]-1H-pyrazol-4-yl}-1,2,3,4-tetrahydro-4-quinolinamine hydrochloride]: the IC50 is no more than 10 µM.

On to `CNCCn1cc(-c2ccc3c(c2)[C@H](Nc2cc(C)ccn2)C[C@H](C)N3C(C)=O)cn1` [Example 149, (2S,4R)-1-Acetyl-2-methyl-6-{1-[2-(methylamino)ethyl]-1H-pyrazol-4-yl}-N-(4-methyl-2-pyridinyl)-1,2,3,4-tetrahydro-4-quinolinamine hydrochloride], for which the IC50 is no more than 10 µM.

Turning to `CNCCn1cc(-c2ccc3c(c2)[C@H](Nc2ccncc2)C[C@H](C)N3C(C)=O)cn1` [Example 130, (2S,4R)-1-Acetyl-2-methyl-6-{1-[2-(methylamino)ethyl]-1H-pyrazol-4-yl}-N-4-pyridinyl-1,2,3,4-tetrahydro-4-quinolinamine formate salt], the IC50 is greater than 10 µM.

For `CNCCn1cc(-c2ccc3c(c2)[C@H](Nc2cccc(F)n2)C[C@H](C)N3C(C)=O)cn1` [Example 151, (2S,4R)-1-Acetyl-N-(6-fluoro-2-pyridinyl)-2-methyl-6-{1-[2-(methylamino)ethyl]-1H-pyrazol-4-yl}-1,2,3,4-tetrahydro-4-quinolinamine hydrochloride], the IC50 was no more than 10 µM.

For `CNCCn1cc(-c2ccc3c(c2)[C@H](Nc2cc(F)ccn2)C[C@H](C)N3C(C)=O)cn1` [Example 156, (2S,4R)-1-Acetyl-N-(4-fluoro-2-pyridinyl)-2-methyl-6-{1-[2-(methylamino)ethyl]-1H-pyrazol-4-yl}-1,2,3,4-tetrahydro-4-quinolinamine hydrochloride], the IC50 was no more than 10 µM.

For `CNCCn1cc(-c2ccc3c(c2)[C@H](Nc2ncccc2C)C[C@H](C)N3C(C)=O)cn1` [Example 148, (2S,4R)-1-Acetyl-2-methyl-6-{1-[2-(methylamino)ethyl]-1H-pyrazol-4-yl}-N-(3-methyl-2-pyridinyl)-1,2,3,4-tetrahydro-4-quinolinamine hydrochloride], the IC50 is no more than 10 µM.

`CC(=O)N1c2ccc(-n3cnc(C)c3)cc2[C@@H](Nc2ccc(C(=O)O)cn2)C[C@H]1C` (racemic) [Example 143, 6-{[(cis)-1-acetyl-2-methyl-6-(4-methyl-1H-imidazol-1-yl)-1,2,3,4-tetrahydro-4-quinolinyl]amino}-3-pyridinecarboxylic acid]: the IC50 was greater than 10 µM.

In the case of `CC(=O)N1c2ccc(-c3ccc(C(=O)O)cc3)cc2[C@H](Nc2ccc(C)cn2)C[C@@H]1C` [Example 126, 4-{(2S,4R)-1-Acetyl-2-methyl-4-[(5-methyl-2-pyridinyl)amino]-1,2,3,4-tetrahydro-6-quinolinyl}benzoic acid], the IC50 was greater than 10 µM.

In the next test the test system is TNFα levels in LPS stimulated whole blood. Description: LPS Stimulated Whole Blood Measuring TNFα Levels Assay. Format: cell-based. Conditions: LPS 200 ng/ml, 24 hours, read-out: pIC50 (TNFα levels) (converted). The method, then: LPS Stimulated Whole Blood Measuring TNFα Levels Assay
Activation of monocytic cells by agonists of toll-like receptors such as bacterial lipopolysaccharide (LPS) results in production of key inflammatory mediators including TNFα. Such pathways are widely considered to be central to the pathophysiology of a range of auto-immune and inflammatory disorders.
Compounds to be tested are diluted to give a range of appropriate concentrations and 1 ul of the dilution stocks is added to wells of a 96 plate. Following addition of whole blood (130 ul) the plates are incubated at 37 degrees (5% CO2) for 30 min before the addition of 10 ul of 2.8 ug/ml LPS, diluted in complete RPMI 1640 (final concentration=200 ng/ml), to give a total volume of 140 ul per well. After further incubation for 24 hours at 37 degrees, 140 ul of PBS are added to each well. The plates are sealed, shaken for 10 minutes and then centrifuged (2500 rpm×10 min). 100 ul of the supernatant are removed and TNFα levels assayed by immunoassay (typically by MesoScale Discovery technology) either immediately or following storage at −20 degrees. Dose response curves for each compound was generated from the data and an IC50 value was calculated.
Turning to `CC(=O)N1c2ccc(-c3ccc(CN4CCCCC4)cc3)cc2[C@@H](Nc2ccccn2)C[C@H]1C` (racemic) [Example 133, (cis)-1-Acetyl-2-methyl-6-[4-(1-pipendinylmethyl)phenyl]-N-2-pyridinyl-1,2,3,4-tetrahydro-4-quinolinamine formate salt], the IC50 is no more than 10 µM.

Consider `CC[C@@H]1C[C@H](Nc2ccccc2)c2cc(-c3ccc(CN4CCCCC4)cc3)ccc2N1C(C)=O` (relative stereo) [Example 163, (cis)-1-Acetyl-2-ethyl-N-phenyl-6-[4-(1-piperidinylmethyl)phenyl]-1,2,3,4-tetrahydro-4-quinolinamine formate salt], for which the IC50 was no more than 10 µM.

Consider `CC(=O)N1c2ccc(-c3ccc(N)nc3)cc2[C@@H](Nc2ccccc2)C[C@H]1C` (racemic) [Example 132, (cis)-1-Acetyl-6-(6-amino-3-pyridinyl)-2-methyl-N-phenyl-1,2,3,4-tetrahydro-4-quinolinamine hydrochloride], for which the IC50 was no more than 10 µM.

Regarding `CC[C@@H]1C[C@H](Nc2ccccc2)c2cc(-c3ccc(C(=O)O)cc3)ccc2N1C(C)=O` (racemic) [Example 162, 4-[(cis)-1-Acetyl-2-ethyl-4-(phenylamino)-1,2,3,4-tetrahydro-6-quinolinyl]benzoic acid], the IC50 was no more than 10 µM.

Take `CC(=O)N1c2ccc(-c3ccc(C(=O)O)cc3)cc2[C@@H](Nc2cccc(F)c2)C[C@H]1C` [Example 179]: the IC50 is no more than 10 µM.

As for `CC(=O)N1c2ccc(-c3ccc(CN4CCCCC4)cc3)cc2[C@@H](Nc2ccc(Cl)cn2)C[C@H]1C` (racemic) [Example 136, (cis)-1-Acetyl-N-(5-chloro-2-pyridinyl)-2-methyl-6-[4-(1-piperidinylmethyl)phenyl]-1,2,3,4-tetrahydro-4-quinolinamine formate salt], the IC50 was no more than 10 µM.

For `CCC[C@@H]1C[C@H](Nc2ccc(C)cc2)c2cc(-c3ccc(CN4CCCCC4)cc3)ccc2N1C(C)=O` [Example 189], the IC50 is no more than 10 µM.

Regarding `CC(=O)N1c2ccc(-c3ccc(CN4CCCCC4)cc3)cc2[C@@H](Nc2ccncc2)C[C@H]1C` (racemic) [Example 138, (cis)-1-Acetyl-2-methyl-6-[4-(1-piperidinylmethyl)phenyl]-N-4-pyridinyl-1,2,3,4-tetrahydro-4-quinolinamine trifluoroacetate], the IC50 is no more than 10 µM.

On to `CC(=O)N1c2ccc(-c3ccc(C(=O)O)cc3)cc2[C@@H](Nc2ccccc2)C[C@H]1C` (stereo in doubt) [Example 91, 4-[1-Acetyl-2-methyl-4-(phenylamino)-1,2,3,4-tetrahydro-6-quinolinyl]benzoic acid], for which the IC50 was no more than 10 µM.

For `CNCc1ccc(-c2ccc3c(c2)[C@H](Nc2ccc(F)cn2)C[C@H](C)N3C(C)=O)cc1` [Example 157, (2S,4R)-1-Acetyl-N-(5-fluoro-2-pyridinyl)-2-methyl-6-{4-[(methylamino)methyl]phenyl}-1,2,3,4-tetrahydro-4-quinolinamine hydrochloride], the IC50 is no more than 10 µM.

These data come from patent publication US8580957B2, “Thetrahydroquinolines derivatives as bromodomain inhibitors” (GlaxoSmithKline LLC, priority 2009, dated 2013).
